Assays:
DCAF15/RBM39 = DCAF15/RBM39 (Homo sapiens, UniProt Q14498+Q66K64); assay: AlphaLISA compound-induced DCAF15-RBM39 ternary complex formation; type: binding; conditions: His-tagged DCAF15 complex and biotin-carrying RBM39
Method in brief: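 Compounds, serially diluted 3-fold from 2 mM DMSO stocks, were incubated 1 h at room temperature with His-tagged DCAF15 complex and biotinylated RBM39 (mixture at 408 nM each, 2.04×). The buffer was 50 mM HEPES pH 7.5, 100 mM NaCl, 2 mM MgCl2, 2 mM TCEP. Ni-chelate acceptor and streptavidin donor beads were added sequentially (1–2 h each), and the AlphaLISA signal was titrated.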

DCAF15 = DCAF15 (Homo sapiens, UniProt Q66K64); assay: HTRF competition assay, binary interaction between compounds and DCAF15; type: binding; conditions: competition with Alexa Fluor 647 tracer, His-tagged DCAF15 complex
Method in brief: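 Compounds, 3-fold serially diluted in DMSO, competed with an Alexa Fluor 647 tracer (612 nM, 2.04× stock) for His-tagged DCAF15 complex (32 nM, 4× stock) premixed 15 min with anti-6His-Eu cryptate. Buffer was 25 mM HEPES pH 7.5, 100 mM NaCl, 0.5 mM TCEP. After 1 h at RT, the 615/666 nm ratio gave titration curves.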

RBM39 = molecular target: T1, RBM39 (Homo sapiens, UniProt Q14498+Q66K64); assay: Western blot assay for degradation of RBM39 in HCT116 cells; type: cell-based; conditions: HCT-116, numeric values
T1 construct: endogenous in cells; host or cells: HCT116
T1 sequence (Q66K64 whole entry): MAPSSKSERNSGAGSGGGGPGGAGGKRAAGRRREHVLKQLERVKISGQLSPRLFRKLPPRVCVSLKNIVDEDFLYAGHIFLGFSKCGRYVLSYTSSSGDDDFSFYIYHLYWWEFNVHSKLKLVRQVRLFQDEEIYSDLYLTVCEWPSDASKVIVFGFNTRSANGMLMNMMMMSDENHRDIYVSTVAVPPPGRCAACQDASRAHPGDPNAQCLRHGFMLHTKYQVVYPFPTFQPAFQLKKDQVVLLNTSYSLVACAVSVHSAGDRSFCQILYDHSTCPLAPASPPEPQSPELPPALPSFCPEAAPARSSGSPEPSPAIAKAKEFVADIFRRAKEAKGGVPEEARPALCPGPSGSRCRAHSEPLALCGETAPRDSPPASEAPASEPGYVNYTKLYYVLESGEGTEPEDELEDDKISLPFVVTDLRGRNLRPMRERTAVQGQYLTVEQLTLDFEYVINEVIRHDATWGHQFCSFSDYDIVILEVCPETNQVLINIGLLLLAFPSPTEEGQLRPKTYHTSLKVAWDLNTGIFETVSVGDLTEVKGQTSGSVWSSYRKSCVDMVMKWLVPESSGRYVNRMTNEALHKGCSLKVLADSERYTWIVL
T1 sequence (Q14498 2-530): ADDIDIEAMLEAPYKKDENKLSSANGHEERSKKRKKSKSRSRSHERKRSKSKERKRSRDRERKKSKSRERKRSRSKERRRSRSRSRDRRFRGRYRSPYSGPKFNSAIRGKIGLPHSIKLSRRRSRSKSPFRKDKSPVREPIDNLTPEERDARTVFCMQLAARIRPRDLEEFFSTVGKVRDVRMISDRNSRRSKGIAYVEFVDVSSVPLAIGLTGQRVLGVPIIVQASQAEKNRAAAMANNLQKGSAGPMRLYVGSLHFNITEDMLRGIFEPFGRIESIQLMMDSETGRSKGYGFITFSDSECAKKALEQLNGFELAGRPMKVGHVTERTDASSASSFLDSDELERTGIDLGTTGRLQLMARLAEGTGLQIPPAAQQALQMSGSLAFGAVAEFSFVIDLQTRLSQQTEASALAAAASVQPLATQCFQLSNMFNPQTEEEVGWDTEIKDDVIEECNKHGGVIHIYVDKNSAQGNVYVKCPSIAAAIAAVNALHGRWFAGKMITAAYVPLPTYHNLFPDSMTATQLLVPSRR
T1 sequence (Q16531 whole entry, further chain): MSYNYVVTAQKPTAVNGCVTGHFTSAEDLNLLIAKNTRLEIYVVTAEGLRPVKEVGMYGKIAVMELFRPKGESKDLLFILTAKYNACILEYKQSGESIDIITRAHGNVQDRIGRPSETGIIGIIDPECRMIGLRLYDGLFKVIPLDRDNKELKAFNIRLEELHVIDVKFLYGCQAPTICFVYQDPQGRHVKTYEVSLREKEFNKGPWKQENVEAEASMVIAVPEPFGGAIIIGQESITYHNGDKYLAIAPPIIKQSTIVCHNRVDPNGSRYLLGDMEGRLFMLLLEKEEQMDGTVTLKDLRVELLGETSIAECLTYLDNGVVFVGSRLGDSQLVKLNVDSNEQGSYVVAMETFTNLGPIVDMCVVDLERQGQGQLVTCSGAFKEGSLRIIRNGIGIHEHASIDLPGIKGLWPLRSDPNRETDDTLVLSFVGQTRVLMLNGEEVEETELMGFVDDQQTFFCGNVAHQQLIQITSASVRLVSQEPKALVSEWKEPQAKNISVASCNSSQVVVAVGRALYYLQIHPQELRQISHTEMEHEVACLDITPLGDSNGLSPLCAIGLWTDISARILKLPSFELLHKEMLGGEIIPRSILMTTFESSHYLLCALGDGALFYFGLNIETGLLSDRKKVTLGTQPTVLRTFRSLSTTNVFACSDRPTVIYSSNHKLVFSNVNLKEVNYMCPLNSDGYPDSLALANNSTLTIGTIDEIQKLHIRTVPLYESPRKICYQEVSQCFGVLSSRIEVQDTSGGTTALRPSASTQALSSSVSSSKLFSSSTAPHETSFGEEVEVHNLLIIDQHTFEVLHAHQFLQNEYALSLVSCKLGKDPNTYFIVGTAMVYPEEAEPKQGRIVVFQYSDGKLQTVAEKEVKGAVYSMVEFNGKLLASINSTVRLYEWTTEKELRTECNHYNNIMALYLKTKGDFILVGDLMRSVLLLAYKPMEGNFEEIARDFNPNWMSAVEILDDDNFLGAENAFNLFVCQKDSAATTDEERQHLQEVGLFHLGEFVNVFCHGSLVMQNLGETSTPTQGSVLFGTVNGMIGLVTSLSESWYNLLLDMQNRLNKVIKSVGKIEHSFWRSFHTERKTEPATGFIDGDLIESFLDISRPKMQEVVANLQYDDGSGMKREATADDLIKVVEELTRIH
Experimental: HCT116 cells were used with passage numbers ranging from 13 to 25. Cells were seeded in 12-well plated at a density of 1 million cells per well in 1 mL cell culture medium containing McCoy's 5A medium (Cat. #16600082, ThermoFisher, Waltham, MA), 10% Fetal Bovine Serum (Cat. #26140, ThermoFisher, Waltham, MA) and 1% Pen-Strep (Cat. #. 15070063, ThermoFisher, Waltham, MA) and incubated overnight. The next morning, compounds were serially diluted (1:3, 9 points) in the medium separately and were prepared 2× the final assay concentration. Subsequently, 1.0 mL medium containing DMSO or the appropriate concentration of each compound was added to respective wells. The final DMSO concentration in each well was 0.1%. After 24 hour incubation with compounds, cell were harvested (approximately 90-100% confluency at the time of harvest). […] Lysates were then sonicated in a sonication bath (3 pulses of 10 sec each with 1 min incubation on ice between each pulse). Samples were then centrifuged for 20 min at 14,000 rpm for 20 min. Supernatants were then transferred to fresh microfuge tubes and stored frozen at −80° C. until use. Total protein quantitation in lysate samples was done using the BCA protein quantitation kit following the manufacturer's instructions. For polyacrylamide gel electrophoresis, each sample (15-30 […]), was diluted with Laemmli sample buffer (Cat. #. 1610747, BioRad, Hercules, CA) by adding 9 ul of lysate to 3 ul of sample buffer containing 10% β-mercaptoethanol. Samples were then denatured at 95° C. for 5 minutes in a heat block, centrifuged at 14,000 rpm for 5 min, and placed on ice. Subsequently, 12 ul of each sample was loaded on 4-20% Tris/Glycine gels and electrophoresed in 1×Tris/Glycine SDS buffer at 80 (constant) volts for 2 h. Resolved samples were then transferred from gels to PVDF membrane using the BioRad Turbo-transfer unit with the Turbo default program (Cat. #. 1704150EDU, BioRad, Hercules, CA). For immunoblotting, membranes were first blocked for 1 hour at room temperature using Odyssey Blocking Buffer (Cat. #: 927-60001, Li-cor, Lincoln, NE) with continuous rocking. Membrane was then incubated with primary antibodies, anti-RBM39 (Sigma Cat. #: HPA001591, St. Louis, MO) and anti-β-actin (Cell Signaling Cat. #3700S, Danvers, MA), diluted 1000 fold each, at 4° C. for overnight. […] Band intensity in images was quantified using the Image Studio Lite software (Version 5.2). Signal intensity for RBM-39 specific bands were normalized using the signal intensity for β-actin-specific band, and percent degradation was assessed by comparing RBM39 signal in compound-treated vs. DMSO-treated samples.

Row | EC50 (DCAF15/RBM39) [nM] | IC50 (DCAF15) [nM] | Dmax (RBM39) [%] | Structure (SMILES)
1 | 1000 to 10000 | 1000 to 10000 | 100 | CCS(=O)(=O)CCOc1ccc(S(=O)(=O)Nc2ccc(Cl)c3c(Cl)c[nH]c23)cc1 [Compound 71]
2 | < 1000 | 1000 to 10000 | 94.8 | O=C(NC1CC1)c1ccc(S(=O)(=O)Nc2ccc(Cl)c3c(Cl)c[nH]c23)cc1 [Compound 153]
3 | 1000 to 10000 | 1000 to 10000 |  | O=C(c1cccc(S(=O)(=O)Nc2ccc(Cl)c3c(Cl)c[nH]c23)c1F)N1CC(N2CCc3ccccc32)C1 [Compound 214]
4 | 1000 to 10000 | 10000 to 100000 |  | O=C(c1ccc(S(=O)(=O)Nc2ccc(Cl)c3c(Cl)c[nH]c23)c(F)c1)N1CC(N2CCc3ccccc32)C1 [Compound 215]
5 | < 1000 | < 1000 |  | O=C(c1cccc(S(=O)(=O)Nc2ccc(Cl)c3c(Cl)c[nH]c23)c1F)N1CC[C@H](n2ccnn2)C1 [Compound 216]
6 | < 1000 | < 1000 |  | O=C(c1ccc(S(=O)(=O)Nc2ccc(Cl)c3c(Cl)c[nH]c23)c(F)c1)N1CC[C@H](n2ccnn2)C1 [Compound 217]
7 | < 1000 | < 1000 |  | O=C(c1cccc(S(=O)(=O)Nc2ccc(Cl)c3c(Cl)c[nH]c23)c1F)N1CCC(Oc2cccnc2)CC1 [Compound 219]
8 | < 1000 | 1000 to 10000 |  | CC(C)(C)OC(=O)N1CCC2(CC1)CN(C(=O)c1cccc(S(=O)(=O)Nc3ccc(Cl)c4c(Cl)c[nH]c34)c1F)CCO2 [Compound 224]
9 | 1000 to 10000 | 1000 to 10000 |  | O=C(c1ccc(S(=O)(=O)Nc2ccc(Cl)c3c(Cl)c[nH]c23)c(F)c1)N1CCc2[nH]c(-c3ccccc3)nc2C1 [Compound 227]
10 | < 1000 | < 1000 |  | Cc1nc2c(n1C)CCN(C(=O)c1cccc(S(=O)(=O)Nc3ccc(Cl)c4c(Cl)c[nH]c34)c1F)C2 [Compound 228]
11 | 1000 to 10000 | 1000 to 10000 |  | CC(C)CCOc1ccc(S(=O)(=O)Nc2ccc(Cl)c3c(Cl)c[nH]c23)cc1 [Compound 230]
12 | 1000 to 10000 | > 100000 |  | O=S(=O)(Nc1ccc(Cl)c2c(Cl)c[nH]c12)c1ccc(Oc2ccc(F)cc2)c(Br)c1 [Compound 234]
13 | 1000 to 10000 | 1000 to 10000 |  | NC(=O)c1cc(Cl)cc(S(=O)(=O)Nc2ccc(Cl)c3c(Cl)c[nH]c23)c1 [Compound 235]
14 | < 1000 | 1000 to 10000 |  | CNC(=O)c1cccc(S(=O)(=O)Nc2ccc(Cl)c3c(Cl)c[nH]c23)c1F [Compound 236]
15 | < 1000 | > 100000 |  | CC(C)CNC(=O)c1ccc(S(=O)(=O)Nc2ccc(Cl)c3c(Cl)c[nH]c23)cc1 [Compound 239]

The remaining lines, values behind:

Row | Structure (SMILES) | EC50 (DCAF15/RBM39) [nM] | IC50 (DCAF15) [nM] | Dmax (RBM39) [%]
16 | O=C(COc1ccc(S(=O)(=O)Nc2ccc(Cl)c3c(Cl)c[nH]c23)cc1)NC1CC1 [Compound 39] | < 1000 | > 100000 | 97.6
17 | CC(C)C[C@H](NC(=O)c1ccc(S(=O)(=O)Nc2ccc(Cl)c3c(Cl)c[nH]c23)c(F)c1)c1nc2ccccc2[nH]1 [Compound 212] | 1000 to 10000 | 1000 to 10000 | 
18 | CC(C)C[C@H](NC(=O)c1cccc(S(=O)(=O)Nc2ccc(Cl)c3c(Cl)c[nH]c23)c1F)c1nc2ccccc2[nH]1 [Compound 213] | < 1000 | 1000 to 10000 | 
19 | O=C(c1cccc(S(=O)(=O)Nc2ccc(Cl)c3c(Cl)c[nH]c23)c1)N1CCOCC1 [Compound 218] | < 1000 | 1000 to 10000 | 100
20 | O=C(c1ccc(S(=O)(=O)Nc2ccc(Cl)c3c(Cl)c[nH]c23)c(F)c1)N1CCC(Oc2cccnc2)CC1 [Compound 220] | < 1000 | 1000 to 10000 | 
21 | O=C(c1cccc(S(=O)(=O)Nc2ccc(Cl)c3c(Cl)c[nH]c23)c1F)N1CCC(c2ccnc(C(F)F)c2)CC1 [Compound 221] | < 1000 | < 1000 | 
22 | O=C(c1ccc(S(=O)(=O)Nc2ccc(Cl)c3c(Cl)c[nH]c23)c(F)c1)N1CCC(c2ccnc(C(F)F)c2)CC1 [Compound 222] | > 100000 | > 100000 | 
23 | CN1CCN(C(=O)c2ccc(S(=O)(=O)Nc3ccc(Cl)c4c(Cl)c[nH]c34)cc2)CC1 [Compound 223] | < 1000 | 1000 to 10000 | 
24 | CC(C)(C)OC(=O)N1CCC2(CC1)CN(C(=O)c1ccc(S(=O)(=O)Nc3ccc(Cl)c4c(Cl)c[nH]c34)c(F)c1)CCO2 [Compound 225] | 1000 to 10000 | 1000 to 10000 | 
25 | O=C(c1cccc(S(=O)(=O)Nc2ccc(Cl)c3c(Cl)c[nH]c23)c1F)N1CCc2[nH]c(-c3ccccc3)nc2C1 [Compound 226] | < 1000 | 1000 to 10000 | 
26 | Cc1nc2c(n1C)CCN(C(=O)c1ccc(S(=O)(=O)Nc3ccc(Cl)c4c(Cl)c[nH]c34)c(F)c1)C2 [Compound 229] | < 1000 | < 1000 | 
27 | COCCOc1ccc(S(=O)(=O)Nc2ccc(Cl)c3c(Cl)c[nH]c23)cc1Br [Compound 231] | 1000 to 10000 | 1000 to 10000 | 
28 | CCOCCOc1ccc(S(=O)(=O)Nc2ccc(Cl)c3c(Cl)c[nH]c23)cc1C(C)C [Compound 232] | 1000 to 10000 | > 100000 | 
29 | CC(C)c1cc(S(=O)(=O)Nc2ccc(Cl)c3c(Cl)c[nH]c23)ccc1OCc1ccccc1 [Compound 233] | 10000 to 100000 | 10000 to 100000 | 
30 | CNC(=O)c1ccc(F)c(S(=O)(=O)Nc2ccc(Cl)c3c(Cl)c[nH]c23)c1 [Compound 237] | 1000 to 10000 | 10000 to 100000 | 
31 | CN(C)C(=O)c1cccc(S(=O)(=O)Nc2ccc(Cl)c3c(Cl)c[nH]c23)c1 [Compound 238] | 1000 to 10000 | 1000 to 10000 | 
32 | CC(C)CNC(=O)c1ccc(S(=O)(=O)Nc2ccc(Cl)c3c(Cl)c[nH]c23)c(F)c1 [Compound 240] | < 1000 | 1000 to 10000 | 

Reference: patent US20240327351A1, “AMIDE AND ETHER SUBSTITUTED N-(1H-INDOL-7-YL)BENZENESULFONAMIDES AND USES THEREOF” (TRIANA BIOMEDICINES, INC., priority 2021, published 2024)
